ChEMBL document CHEMBL2086307, “Design, synthesis and identification of a new class of triarylmethyl amine compounds as inhibitors of apolipoprotein E production” (2012)
Activity calls are given as the source filed them. The calls are words filed in the database; no cut-off is given here.

System: CCF-STTG1
Experiment: Inhibition of apolipoprotein E production in human CCF-STTG1 cells at 10 uM after 24 hrs by ELISA relative to vehicle-treated control
Format: functional
Settings: for inhibition at 10 µM: CCF-STTG1, 24 h

Structure (SMILES) | inhibition | inhibition at 10 µM [%]
CCN(CC)C(c1ccccc1)(c1ccccc1)c1ccccc1 | Active | 
CC(C)CNC(c1ccccc1)(c1ccccc1)c1ccc2ccccc2c1 |  | 50
CCCCN(CCCC)C(c1ccccc1)(c1ccccc1)c1ccc2ccccc2c1 | Active | 
c1ccc(C(c2ccccc2)(c2ccccc2)N2CCCCC2)cc1 | Active | 
CN(C)C(c1ccccc1)(c1ccccc1)c1ccccc1 | Active | 
CN(C)C(c1ccccc1)(c1ccccc1)c1ccc2ccccc2c1 | Active | 
c1ccc(CNC(c2ccccc2)(c2ccccc2)c2ccccc2)cc1 | Active | 
c1ccc(C(c2ccccc2)(c2ccccc2)N2CCOCC2)cc1 | Active | 
c1ccc(C(c2ccccc2)(c2ccc3ccccc3c2)N2CCCCC2)cc1 | Active | 
c1ccc(C(c2ccccc2)(c2ccccc2)N2CCCC2)cc1 | Active | 
CC(C)CNC(c1ccccc1)(c1ccccc1)c1ccccc1 | Active | 
COc1ccc(C(NCC(C)C)(c2ccccc2)c2ccccc2)cc1 | Active | 
c1ccc(C(c2ccccc2)(c2ccccc2)N2CCNCC2)cc1 | Active | 
c1ccc(NC(c2ccccc2)(c2ccccc2)c2ccccc2)cc1 | Active | 
COc1ccc(C(c2ccccc2)(c2ccccc2)N2CCCCC2)cc1 | Active | 
c1ccc(C(NC2CCCCC2)(c2ccccc2)c2ccc3ccccc3c2)cc1 | Active | 
c1ccc(C(c2ccccc2)(c2ccc3ccccc3c2)N2CCOCC2)cc1 |  | 49
CC(NC(c1ccccc1)(c1ccccc1)c1ccc2ccccc2c1)c1ccccc1 (racemic) | Active | 
c1ccc(C(c2ccccc2)(c2ccc3ccccc3c2)N2CCCC2)cc1 |  | 46
CCCCN(CCCC)C(c1ccccc1)(c1ccccc1)c1ccc(OC)cc1 | Active | 
c1ccc(CN(Cc2ccccc2)C(c2ccccc2)(c2ccccc2)c2ccccc2)cc1 | Active | 

Structure (SMILES) | inhibition | inhibition at 10 µM [%]
O=C(c1ccccc1)c1ccccc1 | Active | 
CCCCN(CCCC)C(c1ccccc1)(c1ccccc1)c1ccccc1 | Active | 
COc1ccc(C(c2ccccc2)(c2ccccc2)N2CCNCC2)cc1 | Active | 
O=C(c1ccccc1)c1ccc(OCc2ccccc2)cc1 | Active | 
O=C(c1ccccc1)C(O)c1ccccc1 (stereo unspecified) | Active | 
CCC(C)NC(c1ccccc1)(c1ccccc1)c1ccc(OC)cc1 (stereo unspecified) | Active | 
COc1ccc(C(c2ccccc2)(c2ccccc2)N2CCOCC2)cc1 | Active | 
COc1ccc(C(Nc2ccccc2)(c2ccccc2)c2ccccc2)cc1 | Active | 
COc1ccc(C(NC2CCCCC2)(c2ccccc2)c2ccccc2)cc1 | Active | 
CCC(C)NC(c1ccccc1)(c1ccccc1)c1ccc2ccccc2c1 (stereo unspecified) |  | 66
CCN(CC)C(c1ccccc1)(c1ccccc1)c1ccc(OC)cc1 | Active | 
COc1ccc(C(c2ccccc2)(c2ccccc2)N(C)C)cc1 | Active | 
CC(NC(c1ccccc1)(c1ccccc1)c1ccccc1)c1ccccc1 (racemic) | Active | 
COc1ccc(C(c2ccccc2)(c2ccccc2)N2CCCC2)cc1 | Active | 
c1ccc(C(NCC2CCCCC2)(c2ccccc2)c2ccccc2)cc1 |  | 51
c1ccc(C(NC2CCCCC2)(c2ccccc2)c2ccccc2)cc1 | Active | 
O=C(c1ccccc1)c1ccc(O)cc1 | Active | 
CCN(CC)C(c1ccccc1)(c1ccccc1)c1ccc2ccccc2c1 | Active | 
COc1ccc(C(NCc2ccccc2)(c2ccccc2)c2ccccc2)cc1 | Active | 
CCC(C)NC(c1ccccc1)(c1ccccc1)c1ccccc1 (stereo unspecified) | Active | 
